Reference: article PMC11255275, “Structural insights into the triple agonism at GLP-1R, GIPR and GCGR manifested by retatrutide” (Cell Discovery, 2024)
Changes are numbered by the printed parent chain.

How the values were obtained:
Assay in all cases: cAMP accumulation, single-point mutated GIPR
Format in all cases: cell-based
GIPR mutants [1] = target: T1, GIPR mutants (Homo sapiens, UniProt P48546, Y36A); conditions: GIPR Y36(ECD)A; HEK-293T, 40 min, TR-FRET; mean ± S.E.M., n at least 3
T1 construct: expressed in transfected cells; host or cells: HEK-293T
T1 sequence (P48546 22-466 Y36A): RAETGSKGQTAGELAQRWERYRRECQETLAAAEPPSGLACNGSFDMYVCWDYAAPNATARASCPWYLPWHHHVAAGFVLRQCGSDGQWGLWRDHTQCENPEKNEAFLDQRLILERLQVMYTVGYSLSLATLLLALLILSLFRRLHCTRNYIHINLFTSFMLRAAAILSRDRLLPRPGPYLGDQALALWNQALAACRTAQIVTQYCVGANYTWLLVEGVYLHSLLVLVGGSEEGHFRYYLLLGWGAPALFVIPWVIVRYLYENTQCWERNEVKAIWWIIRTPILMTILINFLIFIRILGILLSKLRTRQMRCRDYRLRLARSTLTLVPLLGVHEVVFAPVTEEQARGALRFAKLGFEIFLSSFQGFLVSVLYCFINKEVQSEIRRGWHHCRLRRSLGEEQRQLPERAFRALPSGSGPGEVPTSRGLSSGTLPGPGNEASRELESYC
Procedure: (§1) HEK-293T cells were maintained at 37°C in 5% CO2 incubator and seeded onto 6-well cell […]
(§2) culture plates before transfection. After overnight culture, the cells were transiently transfected […]
(§3) with various constructs using Lipofectamine 2000 transfection reagent (Invitrogen). After 24 h, […]
(§4) the transfected cells were seeded onto 384-microtiter plates at a density of 3,000 cells per well […]
(§5) in stimulation buffer (HBSS supplemented with 5 mM HEPES, 0.1% (w/v) casein and 0.5 mM […]
(§6) 3-isobutyl-1-methylxanthine). Different concentrations of retatrutide in stimulation buffer were […]
(§7) added, and the stimulation lasted for 40 min. The reaction was stopped by addition of cAMP […]
(§8) detection buffer containing Eu-cAMP tracer and ULight-anti-cAMP. Plates were then incubated for […]
(§9) 60 min at RT. Time-resolved FRET signals were measured at 620 nm and 665 nm, respectively, by […]
(§10) an EnVision multilabel plate reader (PerkinElmer). Data were analyzed in GraphPad PRISM 9.5 […]
(§11) and all values were normalized to that of the wild-type (WT).
(§12) Supplementary Fig. 5 Effects of receptor mutation on retatrutide-induced cAMP […]
(§13) accumulation. a-c, Signaling profiles of GLP-1R (a), GIPR (b) and GCGR (c) mutants. cAMP […]
(§14) accumulation was measured in wild-type (WT) and single-point mutated GLP-1R, GIPR or […]
(§15) GCGR expressing HEK-293T cells. cAMP levels were normalized to the maximum response […]
(§16) of the WT and dose-response curves were analyzed using a three-parameter logistic equation.
(§17) Data were generated and graphed as means ± S.E.M. of at least three independent experiments performed in quadruplicate.
(§18) (1 picture or pasted object on this page, not shown here)
(§19) Supplementary Ta b l e S 5 Effects of the ligand-binding pocket residue mutation on retatrutide- […]
(§20) induced cAMP signaling at GLP-1R, GIPR or GCGR. […]
(§21) cAMP levels were normalized to the maximum response of the wild-type (WT) and dose-response […]
(§22) curves were analyzed using a three-parameter logistic equation to obtain pEC50 and Emax values. The […]
(§23) experiments were carried out independently at least three times. Data shown are means ± S.E.M. One- […]
(§24) way ANOVA was used to determine statistical difference. N.D., values that could not be determined due […]
(§25) to incomplete curve fits. *P< 0.05, **P< 0.01, ***P< 0.001 and ****P<0.0001.

GIPR mutants [2] = target: T2, GIPR mutants (Homo sapiens, UniProt P48546, E354A); conditions: GIPR E354(6.53b)A; HEK-293T, 40 min, TR-FRET; mean ± S.E.M., n at least 3
T2 construct: expressed in transfected cells; host or cells: HEK-293T
T2 sequence (P48546 22-466 E354A): as the sequence (P48546 22-466 Y36A) above, with A15Y, E333A counted along it
Procedure: as §1, §2, §3, §4, §5, §6, §7, §8, §9, §10, §11, §12, §13, §14, §15, §16, §17, §18, §19, §20, §21, §22, §23, §24, §25

GIPR mutants [3] = target: T3, GIPR mutants (Homo sapiens, UniProt P48546, R289A); conditions: GIPR R289(ECL2)A, HEK-293T, 40 min, TR-FRET, mean ± S.E.M., n at least 3
T3 construct: expressed in transfected cells; host or cells: HEK-293T
T3 sequence (P48546 22-466 R289A): as the sequence (P48546 22-466 Y36A) above, with A15Y, R268A counted along it
Procedure: as §1, §2, §3, §4, §5, §6, §7, §8, §9, §10, §11, §12, §13, §14, §15, §16, §17, §18, §19, §20, §21, §22, §23, §24, §25

GIPR mutants [4] = target: T4, GIPR mutants (Homo sapiens, UniProt P48546, R196Y); conditions: GIPR R196(ECL1)Y
T4 construct: expressed in transfected cells; host or cells: HEK-293T
T4 sequence (P48546 22-466 R196Y): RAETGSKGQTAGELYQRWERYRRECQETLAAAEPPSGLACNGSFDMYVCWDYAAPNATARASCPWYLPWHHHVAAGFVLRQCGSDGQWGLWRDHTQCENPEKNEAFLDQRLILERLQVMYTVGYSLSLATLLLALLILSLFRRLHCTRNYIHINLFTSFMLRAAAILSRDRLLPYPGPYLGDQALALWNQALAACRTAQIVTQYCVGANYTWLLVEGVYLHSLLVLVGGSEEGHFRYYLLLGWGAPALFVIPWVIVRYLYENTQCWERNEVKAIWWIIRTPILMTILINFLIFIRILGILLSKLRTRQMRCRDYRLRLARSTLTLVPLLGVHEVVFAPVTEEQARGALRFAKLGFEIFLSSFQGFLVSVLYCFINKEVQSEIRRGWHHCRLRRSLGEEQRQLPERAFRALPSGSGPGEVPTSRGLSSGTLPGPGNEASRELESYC
Procedure: as §1, §2, §3, §4, §5, §6, §7, §8, §9, §10, §11, §12, §13, §14, §15, §16, §17, §18, §19, §20, §21, §22, §23, §24, §25

GIPR mutants [5] = target: T5, GIPR mutants (Homo sapiens, UniProt P48546, P195K); conditions: GIPR P195(2.72b)K, relative to WT; pEC50 and Emax N.D. (incomplete curve fits)
T5 construct: expressed in transfected cells; host or cells: HEK-293T
T5 sequence (P48546 22-466 P195K): as the sequence (P48546 22-466 Y36A) above, with A15Y, P174K counted along it
Procedure: as §1, §2, §3, §4, §5, §6, §7, §8, §9, §10, §11, §12, §13, §14, §15, §16, §17, §18, §19, §20, §21, §22, §23, §24, §25

GIPR mutants [6] = target: T6, GIPR mutants (Homo sapiens, UniProt P48546, W209A); conditions: GIPR W209(ECL1)A; HEK-293T, 40 min, TR-FRET; mean ± S.E.M., n at least 3
T6 construct: expressed in transfected cells; host or cells: HEK-293T
T6 sequence (P48546 22-466 W209A): as the sequence (P48546 22-466 Y36A) above, with A15Y, W188A counted along it
Procedure: as §1, §2, §3, §4, §5, §6, §7, §8, §9, §10, §11, §12, §13, §14, §15, §16, §17, §18, §19, §20, §21, §22, §23, §24, §25

GIPR mutants [7] = target: T7, GIPR mutants (Homo sapiens, UniProt P48546, E377A)
T7 construct: expressed in transfected cells; host or cells: HEK-293T
T7 sequence (P48546 22-466 E377A): T4 sequence (P48546 22-466 R196Y) with Y175R, E356A
Procedure: as §1, §2, §3, §4, §5, §6, §7, §8, §9, §10, §11, §12, §13, §14, §15, §16, §17, §18, §19, §20, §21, §22, §23, §24, §25

GIPR mutants [8] = target: T8, GIPR mutants (Homo sapiens, UniProt P48546, F127A); conditions: GIPR F127(1.29b)A; HEK-293T, 40 min, TR-FRET; mean ± S.E.M., n at least 3
T8 construct: expressed in transfected cells; host or cells: HEK-293T
T8 sequence (P48546 22-466 F127A): as the sequence (P48546 22-466 Y36A) above, with A15Y, F106A counted along it
Procedure: as §1, §2, §3, §4, §5, §6, §7, §8, §9, §10, §11, §12, §13, §14, §15, §16, §17, §18, §19, §20, §21, §22, §23, §24, §25

GIPR mutants [9] = target: T9, GIPR mutants (Homo sapiens, UniProt P48546, Q285A); conditions: GIPR Q285(ECL2)A; HEK-293T, 40 min, TR-FRET; mean ± S.E.M., n at least 3
T9 construct: expressed in transfected cells; host or cells: HEK-293T
T9 sequence (P48546 22-466 Q285A): as the sequence (P48546 22-466 Y36A) above, with A15Y, Q264A counted along it
Procedure: as §1, §2, §3, §4, §5, §6, §7, §8, §9, §10, §11, §12, §13, §14, §15, §16, §17, §18, §19, §20, §21, §22, §23, §24, §25

## CC[C@H](C)[C@H](NC(=O)[C@H](Cc1ccccc1)NC(=O)[C@H](C)NC(=O)C(C)(C)NC(=O)[C@H](CCC(N)=O)NC(=O)[C@H](C)NC(=O)[C@H](CCCCNC(=O)COCCOCCNC(=O)CC[C@H](NC(=O)CCCCCCCCCCCCCCCCCCC(=O)O)C(=O)O)NC(=O)[C@H](CCCCN)NC(=O)[C@H](CC(=O)O)NC(=O)[C@H](CC(C)C)NC(=O)[C@](C)(CC(C)C)NC(=O)[C@@H](NC(=O)[C@H](CO)NC(=O)[C@H](Cc1ccc(O)cc1)NC(=O)[C@H](CC(=O)O)NC(=O)[C@H](CO)NC(=O)[C@@H](NC(=O)[C@H](Cc1ccccc1)NC(=O)[C@@H](NC(=O)CNC(=O)[C@H](CCC(N)=O)NC(=O)C(C)(C)NC(=O)[C@@H](N)Cc1ccc(O)cc1)[C@@H](C)O)[C@@H](C)O)[C@@H](C)CC)C(=O)N[C@@H](CCC(=O)O)C(=O)N[C@@H](Cc1ccc(O)cc1)C(=O)N[C@@H](CC(C)C)C(=O)N[C@@H](CC(C)C)C(=O)N[C@@H](CCC(=O)O)C(=O)NCC(=O)NCC(=O)N1CCC[C@H]1C(=O)N[C@@H](CO)C(=O)N[C@@H](CO)C(=O)NCC(=O)N[C@@H](C)C(=O)N1CCC[C@H]1C(=O)N1CCC[C@H]1C(=O)N1CCC[C@H]1C(=O)N[C@@H](CO)C(N)=O [retatrutide]
GIPR mutants [1]
  EC50: 3.09 pM
  Emax ± S.E.M. (% WT): 99.10 ± 3.86 % WT
GIPR mutants [2]
  EC50: 5.89 pM
  Emax ± S.E.M. (% WT): 99.43 ± 4.28 % WT
GIPR mutants [3]
  Emax ± S.E.M. (% WT): 98.56 ± 4.01 % WT
GIPR mutants [3]; ***P < 0.001
  EC50: 0.0126 nM
GIPR mutants [4]; relative to WT
  decrease of retatrutide potency by mutation: 107.7 fold
GIPR mutants [4]; HEK-293T, 40 min, TR-FRET, mean ± S.E.M., n at least 3
  Emax ± S.E.M. (% WT): 92.16 ± 5.36 % WT
GIPR mutants [4]; HEK-293T, 40 min, TR-FRET, mean ± S.E.M., n at least 3, ****P < 0.0001
  EC50: 0.245 nM
GIPR mutants [5]
  change of GIPR-mediated cAMP accumulation by mutation: markedly decreased
GIPR mutants [6]
  EC50: 2 pM
  Emax ± S.E.M. (% WT): 100.17 ± 3.21 % WT
GIPR mutants [7]; GIPR E7.42bA (E377A), relative to WT
  decrease of cAMP signaling potency by mutation: 71.6 fold
GIPR mutants [7]; GIPR E377(7.42b)A, HEK-293T, 40 min, TR-FRET, mean ± S.E.M., n at least 3
  Emax ± S.E.M. (% WT): 99.83 ± 6.38 % WT
GIPR mutants [7]; GIPR E377(7.42b)A, HEK-293T, 40 min, TR-FRET, mean ± S.E.M., n at least 3, ****P < 0.0001
  EC50: 0.166 nM
GIPR mutants [8]
  EC50: 4.17 pM
  Emax ± S.E.M. (% WT): 99.67 ± 4.00 % WT
GIPR mutants [9]
  EC50: 1.74 pM
  Emax ± S.E.M. (% WT): 100.34 ± 4.02 % WT
